Reference: patent US11357779B2 (G1 Therapeutics, Inc., priority 2018, dated 2022)
Read-outs that look alike come from different tables or passages of the source.

Test: Noncompartmental pharmacokinetic parameters (Cmax, Tmax, AUC, Racc) in QD and BID cohorts of Form B
Format: in vivo, human
Conditions: Compound III; for AUC(0-t) / Cmax / Tmax: human, plasma, oral
Method: Analysis of plasma concentration versus time data for calculation of standard pharmacokinetic (PK) parameters following oral administration was conducted using Phoenix WinNonlin version 6.3 using actual blood sampling times.
The following pharmacokinetic parameters were calculated from the concentration versus time data obtained in Example 1 for each of the above QD (200 mg, 300 mg, 400 mg, 500 mg, or 650 mg dosed) and BID (100 mg, 150 mg, or 200 mg doses) Form B of Compound II dosage cohorts: • Cmax—the observed peak plasma concentration determined from the plasma concentration versus time data obtained on Day 1 and Day 29, as applicable; • Tmax—the time to reach the observed peak plasma concentration from the plasma concentration versus time data obtained on Day 1 and Day 29, as applicable; • AUC—area under the plasma concentration versus time curve during a dosing interval on Day 1 and Day 29, as applicable; and • Racc—accumulation ratio calculated as AUCDay 29/AUCDay 1.

[1] = 100 mg BID of Form B, Cohort 6, Day 1
[2] = 100 mg BID of Form B, Cohort 6, Day 29
[3] = 150 mg BID of Form B, Cohort 7, Day 1
[4] = 150 mg BID of Form B, Cohort 7, Day 29
[5] = 200 mg BID of Form B, Cohort 8, Day 1
[6] = 200 mg BID of Form B, Cohort 8, Day 29
[7] = 200 mg QD of Form B, Cohort 1, Day 1
[8] = 200 mg QD of Form B, Cohort 1, Day 29
[9] = 300 mg QD of Form B, Cohort 2, Day 1
[10] = 300 mg QD of Form B, Cohort 2, Day 29
[11] = 400 mg QD of Form B, Cohort 3, Day 1
[12] = 400 mg QD of Form B, Cohort 3, Day 29
[13] = 500 mg QD of Form B, Cohort 4, Day 1
[14] = 500 mg QD of Form B, Cohort 4, Day 29
[15] = 650 mg QD of Form B, Cohort 5, Day 1
[16] = 650 mg QD of Form B, Cohort 5, Day 29

O=C1NCC2(CCCCC2)n2c1cc1cnc(Nc3ccc(N4CCNCC4)cn3)nc12 [Compound III, 2′-((5-(piperazin-1-yl)pyridin-2-yl)amino)-7′,8′-dihydro-6′H-spiro[cyclohexane-1,9′-pyrazino[1′,2′:1,5]pyrrolo[2,3-d]pyrimidin]-6′-one]
AUClast (Max) [1]: 0.00861 µg·h/mL | AUClast (Min) [1]: 0.00287 µg·h/mL | Cmax (Max) [1]: 2.12 ng/mL | Cmax (Min) [1]: 1.11 ng/mL | AUClast (Max) [2]: 0.0216 µg·h/mL | AUClast (Min) [2]: 0.00345 µg·h/mL | Cmax (Max) [2]: 3.11 ng/mL | Cmax (Min) [2]: 0.855 ng/mL | Tmax (Max) [2]: 12.0 h | AUClast (Max) [3]: 0.0175 µg·h/mL | AUClast (Min) [3]: 0.0157 µg·h/mL | Cmax (Max) [3]: 3.67 ng/mL | Cmax (Min) [3]: 2.93 ng/mL | AUClast (Max) [4]: 0.101 µg·h/mL | AUClast (Min) [4]: 0.0194 µg·h/mL | Cmax (Max) [4]: 12.2 ng/mL | Cmax (Min) [4]: 2.93 ng/mL | AUClast (Max) [5]: 0.0254 µg·h/mL | AUClast (Min) [5]: 0.00618 µg·h/mL | Cmax (Max) [5]: 4.07 ng/mL | Cmax (Min) [5]: 1.40 ng/mL | AUClast (Max) [6]: 0.0308 µg·h/mL | AUClast (Min) [6]: 0.0152 µg·h/mL | Cmax (Max) [6]: 4.12 ng/mL | Cmax (Min) [6]: 1.49 ng/mL | Tmax (Max) [6]: 12.0 h | AUClast (Max) [7]: 0.0585 µg·h/mL | AUClast (Min) [7]: 0.00529 µg·h/mL | Cmax (Max) [7]: 7.82 ng/mL | Cmax (Min) [7]: 1.27 ng/mL | AUClast (Max) [8]: 0.0642 µg·h/mL | AUClast (Min) [8]: 0.00197 µg·h/mL | Cmax (Max) [8]: 6.11 ng/mL | Cmax (Min) [8]: 0.864 ng/mL | AUClast (Max) [9]: 0.0652 µg·h/mL | AUClast (Min) [9]: 0.0109 µg·h/mL | Cmax (Max) [9]: 6.40 ng/mL | Cmax (Min) [9]: 1.82 ng/mL | Tmax (Min) [9]: 60 min | AUClast (Max) [10]: 0.0975 µg·h/mL | AUClast (Min) [10]: 0.0451 µg·h/mL | Cmax (Max) [10]: 6.05 ng/mL | Cmax (Min) [10]: 4.70 ng/mL | Tmax (Max) [10]: 8.00 h | AUClast (Max) [11]: 0.0298 µg·h/mL | AUClast (Min) [11]: 0.0178 µg·h/mL | Cmax (Max) [11]: 6.87 ng/mL | Cmax (Min) [11]: 3.02 ng/mL | Tmax (Min) [11]: 60 min | AUClast (Max) [12]: 0.0547 µg·h/mL | AUClast (Min) [12]: 0.0322 µg·h/mL | Cmax (Max) [12]: 4.54 ng/mL | Cmax (Min) [12]: 2.55 ng/mL | AUClast (Max) [13]: 0.0914 µg·h/mL | AUClast (Min) [13]: 0.0616 µg·h/mL | Cmax (Max) [13]: 9.03 ng/mL | Cmax (Min) [13]: 6.84 ng/mL | AUClast (Max) [14]: 0.0698 µg·h/mL | AUClast (Min) [14]: 0.0598 µg·h/mL | Cmax (Max) [14]: 7.91 ng/mL | AUClast (Max) [15]: 0.174 µg·h/mL | AUClast (Min) [15]: 0.0618 µg·h/mL | Cmax (Max) [15]: 16.5 ng/mL | Cmax (Min) [15]: 5.56 ng/mL | Tmax (Max) [15]: 8.00 h | AUClast (Max) [16]: 0.169 µg·h/mL | AUClast (Min) [16]: 0.0806 µg·h/mL | Cmax (Max) [16]: 12.1 ng/mL | Cmax (Min) [16]: 5.30 ng/mL | Tmax (Max) [16]: 8.00 h | AUC(0-t) (100 mg, 100 mg BID of Form B, Cohort 6, Day 1, read-out: AUClast (Mean)): 0.00537 µg·h/mL | AUC(0-t) (100 mg, 100 mg BID of Form B, Cohort 6, Day 1, read-out: AUClast (Median)): 0.00518 µg·h/mL | Cmax (100 mg, 100 mg BID of Form B, Cohort 6, Day 1, read-out: Cmax (Mean)): 1.59 ng/mL | Cmax (100 mg, 100 mg BID of Form B, Cohort 6, Day 1, read-out: Cmax (Median)): 1.6 ng/mL | Tmax (100 mg, 100 mg BID of Form B, Cohort 6, Day 1, read-out: Tmax (Mean)): 3.17 h | Tmax (100 mg, 100 mg BID of Form B, Cohort 6, Day 1, read-out: Tmax (Median)): 3 h | AUC(0-t) (100 mg, 100 mg BID of Form B, Cohort 6, Day 29, read-out: AUClast (Mean)): 0.013 µg·h/mL | AUC(0-t) (100 mg, 100 mg BID of Form B, Cohort 6, Day 29, read-out: AUClast (Median)): 0.00986 µg·h/mL | Cmax (100 mg, 100 mg BID of Form B, Cohort 6, Day 29, read-out: Cmax (Mean)): 1.89 ng/mL | Cmax (100 mg, 100 mg BID of Form B, Cohort 6, Day 29, read-out: Cmax (Median)): 1.56 ng/mL | Tmax (100 mg, 100 mg BID of Form B, Cohort 6, Day 29, read-out: Tmax (Mean)): 4.4 h | Tmax (100 mg, 100 mg BID of Form B, Cohort 6, Day 29, read-out: Tmax (Median)): 2 h | AUC(0-t) (150 mg, 150 mg BID of Form B, Cohort 7, Day 1, read-out: AUClast (Mean)): 0.0165 µg·h/mL
